Test results published in ChEMBL document CHEMBL1201862, “PubChem BioAssay data set” (2004).
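Compound exposure: 48 hours, 5 concentrations, 96-well plates. At the GI50, growth is halved.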 Calls of active or inactive are those of the source. Rule as the data show it: active = GI50 up to about 1.1 µM and inactive = higher.

Key:
Assay in all cases: DTP human tumour cell line panel, 48 h
786-0 = tested on: 786-0
A498 = tested on: A498
A549 = tested on: A549
CAKI-1 = tested on: CAKI-1
CCRF-CEM = tested on: CCRF-CEM
HCT-116 = tested on: HCT-116
HT-29 = tested on: HT-29
MDA-MB-231 = tested on: MDA-MB-231
MDA-N = tested on: MDA-N
Malme-3M = tested on: Malme-3M
NCI-H226 = tested on: NCI-H226
NCI-H23 = tested on: NCI-H23
NCI-H522 = tested on: NCI-H522
OVCAR-3 = tested on: OVCAR-3
OVCAR-4 = tested on: OVCAR-4
SK-MEL-5 = tested on: SK-MEL-5
SK-OV-3 = tested on: SK-OV-3
SNB-19 = tested on: SNB-19
SW-620 = tested on: SW-620
UACC-257 = tested on: UACC-257

Structure (SMILES)	GI50 (786-0)	GI50 (A498)	GI50 (A549)	GI50 (CAKI-1)	GI50 (CCRF-CEM)	GI50 (HCT-116)	GI50 (HT-29)	GI50 (MDA-MB-231)	GI50 (MDA-N)	GI50 (Malme-3M)	GI50 (NCI-H226)	GI50 (NCI-H23)	GI50 (NCI-H522)	GI50 (OVCAR-3)	GI50 (OVCAR-4)	GI50 (SK-MEL-5)	GI50 (SK-OV-3)	GI50 (SNB-19)	GI50 (SW-620)	GI50 (UACC-257)
N=C(N)SCC(=O)O	> 100 µM (inactive)	> 100 µM (inactive)	> 100 µM (inactive)	> 100 µM (inactive)	> 100 µM (inactive)	> 100 µM (inactive)	> 100 µM (inactive)	> 100 µM (inactive)	> 100 µM (inactive)	> 100 µM (inactive)	> 100 µM (inactive)	> 100 µM (inactive)	> 100 µM (inactive)	> 100 µM (inactive)	> 100 µM (inactive)	> 100 µM (inactive)	> 100 µM (inactive)	> 100 µM (inactive)	> 100 µM (inactive)	> 100 µM (inactive)
Cn1c(=O)c2c(nc3sc4c(n32)C(=O)c2c(O)ccc(O)c2C4=O)n(C)c1=O	1.75 µM (inactive)	22.1 µM (inactive)	12.7 µM (inactive)	6.04 µM (inactive)	0.305 µM (active)	1.87 µM (inactive)	2.19 µM (inactive)	2.28 µM (inactive)	1.86 µM (inactive)	1.06 µM (active)	53.8 µM (inactive)	7.55 µM (inactive)	0.137 µM (active)	4.67 µM (inactive)	1.46 µM (inactive)	2.46 µM (inactive)	40.7 µM (inactive)	> 53.1 µM (inactive)	0.406 µM (active)	11.2 µM (inactive)
O=C(NCCCNCCN1C(=O)c2cccc3cc([N+](=O)[O-])cc(c23)C1=O)c1cc(-c2ccccc2)nc2ccccc12	1.45 µM (inactive)	4.2 µM (inactive)	3.31 µM (inactive)	6.07 µM (inactive)	0.966 µM (active)	1.23 µM (inactive)	0.971 µM (active)	3.01 µM (inactive)	1.53 µM (inactive)	1.81 µM (inactive)	7.26 µM (inactive)	3.02 µM (inactive)	1.62 µM (inactive)	5.87 µM (inactive)	3.2 µM (inactive)	2.09 µM (inactive)	8.91 µM (inactive)	3.72 µM (inactive)	0.955 µM (active)	2.21 µM (inactive)
COC(=O)C(COC(C)=O)NC(=O)/C=C/c1ccc(O)c(OC(C)=O)c1 (stereo not given)	55.8 µM (inactive)	> 100 µM (inactive)	> 100 µM (inactive)	66.2 µM (inactive)	17.4 µM (inactive)	39.1 µM (inactive)	78.2 µM (inactive)	30.1 µM (inactive)	> 100 µM (inactive)	> 100 µM (inactive)	> 100 µM (inactive)	> 100 µM (inactive)	11.4 µM (inactive)	50.6 µM (inactive)	70.8 µM (inactive)	> 100 µM (inactive)	> 100 µM (inactive)	> 100 µM (inactive)	31 µM (inactive)	> 100 µM (inactive)
CC(C)(Cl)C(Br)CC/C(CBr)=C(/Cl)CCl.CC(C)(Cl)C(Br)CC/C(CBr)=C(\Cl)CCl (stereo not given)	1.66 µM (inactive)	0.1 µM (active)	> 10 µM (inactive)	2.41 µM (inactive)	0.126 µM (active)	1.82 µM (inactive)	2.06 µM (inactive)	1.83 µM (inactive)	1.8 µM (inactive)	1.9 µM (inactive)	0.975 µM (active)	2.43 µM (inactive)	1.45 µM (inactive)	2.32 µM (inactive)	2.74 µM (inactive)	1.82 µM (inactive)	3.36 µM (inactive)	6.15 µM (inactive)	2.64 µM (inactive)	2.13 µM (inactive)
COn1cc(CO)c2ccccc21	> 86.9 µM (inactive)	1.82 µM (inactive)	> 62.1 µM (inactive)	3.37 µM (inactive)	34.7 µM (inactive)	45.3 µM (inactive)	> 58.5 µM (inactive)	> 100 µM (inactive)	97.5 µM (inactive)	53 µM (inactive)	1.57 µM (inactive)	> 100 µM (inactive)	21.5 µM (inactive)	40.8 µM (inactive)	34 µM (inactive)	64.1 µM (inactive)	> 100 µM (inactive)	> 100 µM (inactive)	27.5 µM (inactive)	25.2 µM (inactive)
